≈ marks a conversion by molar mass, not a printed value. Values belong to the molecule of their own block, whether it stands above or below them.
Assays:
Test in all cases: ≥ marks a high value that may be exact or a test limit, other limits are often not marked, values filed in µg/mL are converted to µM
[1] = system: Streptococcus dysgalactiae PTCC 1074
[2] = system: Klebsiella pneumoniae PTCC 1388
[3] = system: Escherichia coli HP101BA 7601c
[4] = system: Staphylococcus aureus PTCC 1431
[5] = system: Streptococcus agalactiae PTCC 1365
[6] = system: Staphylococcus aureus ATCC 25923
[7] = system: Klebsiella pneumoniae ATCC 700603
[8] = system: Pseudomonas aeruginosa ATCC 27853
[9] = system: Acinetobacter baumannii I NM8
[10] = system: Candida albicans ATCC 90028
[11] = system: Escherichia coli ATCC 25726
[12] = system: Staphylococcus aureus CUN 3792-99
[13] = system: Bordetella bronchiseptica CUN 11844-99
[14] = system: Acinetobacter baumannii ATCC 19606
[15] = system: Escherichia coli ATCC 25922
[16] = system: Pseudomonas aeruginosa CUN 4158-02
[17] = system: Stenotrophomonas maltophilia CUN 3998-00
[18] = system: Staphylococcus aureus ATCC 43300
[19] = system: Pseudomonas aeruginosa 3599
[20] = system: Pseudomonas aeruginosa ATCC 9027
[21] = system: Staphylococcus aureus 01-001
Escherichia coli 170 = system: Escherichia coli 170
[22] = system: Acinetobacter baumannii 5821
Escherichia coli 09-280 = system: Escherichia coli 09-280
[23] = system: Klebsiella pneumoniae 01-239
[24] = system: Staphylococcus aureus 06-051
[25] = system: Candida parapsilosis ATCC 22019
[26] = system: Staphylococcus aureus ATCC 29213
[27] = system: Enterobacter cloacae 06-267
Escherichia coli 5509 = system: Escherichia coli 5509
Candida albicans SC5314 = system: Candida albicans SC5314
Escherichia coli 09-240 = system: Escherichia coli 09-240
[28] = system: Enterobacter cloacae 14-262
[29] = system: Candida tropicalis ATCC 750
[30] = system: Cryptococcus neoformans var. neoformans B3501
[31] = system: Pseudomonas aeruginosa 5106
[32] = system: Candida glabrata ATCC 90030
[33] = system: Klebsiella pneumoniae 01-252
[34] = system: Cryptococcus neoformans var. grubii H99
[35] = system: Staphylococcus aureus IAM 1011
Salmonella typhimurium = system: Salmonella typhimurium
[36] = system: Shewanella putrefaciens IAM 1509
[37] = system: Vibrio anguillarum NCIMB 829
[38] = system: Aeromonas salmonicida NCIMB 1102
[39] = system: Escherichia coli JCM 1649
[40] = system: Photobacterium damselae subsp. piscicida Sp 9587
[41] = system: Vibrio parahaemolyticus Vp+1
[42] = system: Bacillus subtilis IAM 1026

SMILES: CC(C)C[C@H](NC(=O)[C@H](C)NC(=O)[C@H](C)NC(=O)[C@H](CC(N)=O)NC(=O)[C@H](Cc1ccccc1)NC(=O)[C@H](CC(C)C)NC(=O)[C@@H]1CCCN1C(=O)[C@H](CCCCN)NC(=O)[C@H](CC(C)C)NC(=O)[C@@H](N)Cc1ccccc1)C(=O)N[C@@H](CCCCN)C(=O)N[C@@H](CC(C)C)C(=O)N[C@@H](CC(C)C)C(=O)N1CCC[C@H]1C(N)=O [FLKPLFNAALKLLP]
MIC [1]: 20.9 µM (≈ 33.2 µg/mL)
MIC [2]: 19.7 µM (≈ 31.2 µg/mL)
MIC [3]: 15.3 µM (≈ 24.2 µg/mL)
MIC [4]: 22.2 µM (≈ 35.2 µg/mL)
MIC [5]: 15.6 µM (≈ 24.7 µg/mL)

SMILES: CC[C@H](C)[C@H](NC(=O)[C@H](CC(C)C)NC(=O)[C@H](Cc1cnc[nH]1)NC(=O)[C@@H]1CCCN1C(=O)[C@H](CC(C)C)NC(=O)[C@@H](NC(=O)[C@H](CCCCN)NC(=O)[C@H](C)NC(=O)[C@@H](NC(=O)CNC(=O)[C@H](CCCCN)NC(=O)[C@H](CC(C)C)NC(=O)CNC(=O)[C@H](CC(C)C)NC(=O)[C@H](CCCCN)NC(=O)[C@H](CC(C)C)NC(=O)[C@H](CC(C)C)NC(=O)[C@@H]1CCCN1C(=O)CNC(=O)[C@H](CC(C)C)NC(=O)[C@H](Cc1ccccc1)NC(=O)CN)C(C)C)C(C)C)C(=O)N1CCC[C@H]1C(=O)N[C@@H](CO)C(=O)N[C@@H](CCCN=C(N)N)C(=O)N[C@@H](CCC(N)=O)C(=O)N[C@@H](CCC(N)=O)C(=O)O [GFLGPLLKLGLKGVAKVLPHLIPSRQQ]
MIC [6]: 6 µM (≈ 17.3 µg/mL)
MIC [7]: 25 µM (≈ 72 µg/mL)
MIC [8]: 6 µM (≈ 17.3 µg/mL)
MIC [9]: 12.5 µM (≈ 36 µg/mL)
MIC [10]: 25 µM (≈ 72 µg/mL)
MIC [11]: 25 µM (≈ 72 µg/mL)

Continued, in another order:

MIC [12]: 5.73 µM (≈ 16 µg/mL)
MIC [6]: 5.73 µM (≈ 16 µg/mL)
MIC [8]: 5.73 µM (≈ 16 µg/mL)
MIC [13]: 1.43 µM (≈ 4 µg/mL)
MIC [14]: 5.73 µM (≈ 16 µg/mL)
MIC [15]: 5.73 µM (≈ 16 µg/mL)
MIC [16]: 11.5 µM (≈ 32 µg/mL)
MIC [17]: 22.9 µM (≈ 64 µg/mL)
MIC [18]: 5.73 µM (≈ 16 µg/mL)
SMILES: NCCCC[C@H](NC(=O)CN)C(=O)N[C@@H](CCCCN)C(=O)N[C@@H](Cc1ccc(O)cc1)C(=O)N[C@@H](CCCN=C(N)N)C(=O)N[C@@H](CCCN=C(N)N)C(=O)N[C@@H](Cc1ccccc1)C(=O)N[C@@H](CCCN=C(N)N)C(=O)N[C@@H](Cc1c[nH]c2ccccc12)C(=O)N[C@@H](CCCCN)C(=O)N[C@@H](Cc1ccccc1)C(=O)N[C@@H](CCCN=C(N)N)C(=O)N[C@@H](CCCCN)C(=O)NCC(=O)N[C@@H](CCCN=C(N)N)C(=O)N[C@@H](Cc1ccccc1)C(=O)N[C@@H](Cc1c[nH]c2ccccc12)C(=O)N[C@@H](Cc1ccccc1)C(=O)N[C@@H](Cc1c[nH]c2ccccc12)C(=O)NCC(N)=O [GKKYRRFRWKFRKGRFWFWG]

MIC [19]: ≥ 32 µM
MIC [20]: 6 µM (≈ 8.6 µg/mL)
MIC [21]: 4 µM (≈ 5.74 µg/mL)
MIC (Escherichia coli 170): ≥ 32 µM
MIC [22]: 10 µM (≈ 14.3 µg/mL)
MIC (Escherichia coli 09-280): ≥ 32 µM
MIC [23]: 30 µM (≈ 43 µg/mL)
MIC [24]: 4 µM (≈ 5.74 µg/mL)
MIC [6]: 10 µM (≈ 14.3 µg/mL)
MIC [25]: ≥ 400 µM
MIC [26]: 8 µM (≈ 11.5 µg/mL)
MIC [27]: ≥ 32 µM
MIC (Escherichia coli 5509): ≥ 32 µM
MIC [8]: > 32 µM
MIC [15]: 15 µM (≈ 21.5 µg/mL)
MIC (Candida albicans SC5314): 25 µM (≈ 35.8 µg/mL)
MIC (Escherichia coli 09-240): 30 µM (≈ 43 µg/mL)
MIC [28]: ≥ 32 µM
MIC [29]: 25 µM (≈ 35.8 µg/mL)
MIC [30]: 12.5 µM (≈ 17.9 µg/mL)
MIC [31]: ≥ 32 µM
MIC [32]: ≥ 400 µM
MIC [33]: ≥ 32 µM
MIC [34]: 25 µM (≈ 35.8 µg/mL)
SMILES: CC[C@H](C)[C@H](N)C(=O)N[C@@H](CC(C)C)C(=O)N[C@@H](CO)C(=O)N[C@@H](C)C(=O)N[C@H](C(=O)N[C@@H](Cc1c[nH]c2ccccc12)C(=O)N[C@@H](CO)C(=O)NCC(=O)N[C@H](C(=O)N[C@@H](CCCCN)C(=O)N[C@@H](CO)C(=O)N[C@@H](CC(C)C)C(=O)N[C@@H](Cc1ccccc1)C(N)=O)[C@@H](C)CC)[C@@H](C)CC [ILSAIWSGIKSLF]

MIC [35]: 4.53 µM (≈ 12.5 µg/mL)
MIC (Salmonella typhimurium): 4.53 µM (≈ 12.5 µg/mL)
MIC [36]: 2.27 µM (≈ 6.25 µg/mL)
MIC [37]: 4.35 µM (≈ 12 µg/mL)
MIC [38]: 9.06 µM (≈ 25 µg/mL)
MIC [39]: 4.53 µM (≈ 12.5 µg/mL)
MIC [40]: 2.27 µM (≈ 6.25 µg/mL)
MIC [42]: 2.27 µM (≈ 6.25 µg/mL)
SMILES: CC[C@H](C)[C@H](NC(=O)[C@H](CCCCN)NC(=O)CNC(=O)[C@H](CC(C)C)NC(=O)[C@@H](NC(=O)[C@H](CCCCN)NC(=O)[C@H](CCCNC(=N)N)NC(=O)[C@H](Cc1c[nH]c2ccccc12)NC(=O)[C@@H](N)CC(N)=O)[C@@H](C)CC)C(=O)N[C@@H](C)C(=O)N[C@@H](CCCCN)C(=O)N[C@H](C(=O)N[C@@H](C)C(=O)N[C@@H](C)C(=O)NCC(=O)N[C@@H](CC(C)C)C(=O)N[C@@H](CC(C)C)C(=O)NCC(=O)N[C@@H](CO)C(=O)N[C@@H](CCSC)C(=O)N[C@@H](CC(C)C)C(=O)N[C@@H](C)C(=O)NCC(=O)N[C@@H](Cc1ccc(O)cc1)C(=O)N[C@@H](CCC(N)=O)C(=O)N[C@H](C(=O)O)C(C)C)C(C)C [NWRKILGKIAKVAAGLLGSMLAGYQV]
MIC [41]: 9.06 µM (≈ 25 µg/mL)
